The subject of one series is A549. In words: Cytotoxicity MTT assay. In kind it is cell-based, human. The following applies: A549, at 100 μM. The procedure:
(§1) Selectivity and toxicity assays […]
(§2) Cytotoxicity on human liver (HepG2), kidney (HEK293) and lung (A549) cells were performed using MTT assay and measuring the optical density (OD) photometrically at 570 nm in a FLUOstar Omega plate reader (BMG labtech, Ortenberg, Germany) as described previously. 6 […]
(§3) The A549 cell line, derived from human lung adenocarcinoma, was grown in Dulbecco's Modified Eagle Medium (DMEM) supplemented with 10% Fetal Bovine Serum (FBS) and 1% penicillin-streptomycin. […]
(Tetrazolium dyes change colour on reduction, which living cells bring about.)

A short description of series [1]: Cytotoxicity MTT assay. The following applies: human, A549 cells (lung). The class given is cell-based, human. The procedure: as §1, §2, §3
A further series has as its target T1, MMP-7 (Homo sapiens, UniProt P09237).
T1 construct: purchased AnaSpec (Fremont, CA, USA)
Put plainly: MMP selectivity assay (SensoLyte 520 Generic MMP Activity Kit). The class given is biochemical. The following applies: read-out: Percent inhibition at 100 µM, MMP-7, 100 µM. From the text:
(§4) Given that the novel inhibitors contain a free thiol as a strong zinc binding group, we analyzed the selectivity of the diastereomeric mixtures 11 and 12 on six human matrix metalloproteases (MMPs) as putative off-targets.[53] […] Furthermore, we tested the impact of 11 and 12 on bacterial viability to ensure that these compounds are antivirulence agents and not antibiotics. […]
(§5) Selectivity and toxicity assays
(§6) Human MMPs -1, -2, -3, -7, -8 and -14 along with the SensoLyte 520 Generic MMP Activity
(§7) Kit*Fluorimetric* were purchased from AnaSpec (Fremont, CA, USA). The inhibition assay

Another series addresses T2, MMP-2 (Homo sapiens, UniProt P08253).
T2 construct: purchased AnaSpec (Fremont, CA, USA)
The series is described as above. The class given is biochemical. The following applies: read-out: Percent inhibition at 100 µM, MMP-2, 100 µM.
Description: as §4, §5, §6, §7

The next series has as its target T3, MMP-1 (Homo sapiens, UniProt P03956).
T3 construct: purchased AnaSpec (Fremont, CA, USA)
Described as above. The class given is biochemical. The following applies: read-out: Percent inhibition at 100 µM, MMP-1, 100 µM.
Description: as §4, §5, §6, §7

Another series concerns the target T4, MMP-14 (Homo sapiens, UniProt P50281).
T4 construct: purchased AnaSpec (Fremont, CA, USA)
The description is as above. In kind it is biochemical. The following applies: read-out: Percent inhibition at 100 µM, MMP-14, 100 µM.
Description: as §4, §5, §6, §7

A further series deals with T5, MMP-8 (Homo sapiens, UniProt P22894).
T5 construct: purchased AnaSpec (Fremont, CA, USA)
The series is described as above. The class given is biochemical. The following applies: read-out: Percent inhibition at 100 µM, MMP-8, 100 µM.
Description: as §4, §5, §6, §7

A further series addresses T6, MMP-3 (Homo sapiens, UniProt P08254).
T6 construct: purchased AnaSpec (Fremont, CA, USA)
The description is as above. The class given is biochemical. The following applies: read-out: Percent inhibition at 100 µM, MMP-3, 100 µM.
Description: as §4, §5, §6, §7

The next series deals with HEK293. Put plainly: Cytotoxicity MTT assay. The class given is cell-based, human. The following applies: HEK293, at 100 μM. The procedure: as §1
(§8) Cytotoxicity on human liver (HepG2), kidney (HEK293) and lung (A549) cells were performed
(§9) using MTT assay and measuring the optical density (OD) photometrically at 570 nm in a […]

The nature of series [2]: Cytotoxicity MTT assay. The class given is cell-based, human. The following applies: human. The procedure: as §1, §8, §9
The next series has as its system HepG2. Put plainly: Cytotoxicity MTT assay. The following applies: HepG2, at 100 μM. The class given is cell-based, human. The procedure:
as §1, §8, §9

The nature of series [3]: Disulfide formation assay: thiol stability in P. aeruginosa culture supernatant (LC-MS). In kind it is in vitro ADME. The following applies: Pseudomonas aeruginosa, pH 7.4, P. aeruginosa culture supernatant, 37 °C, read-out: thiol half-life (conversion into disulfide). The text has this:
Disulfide formation in the presence of P. aeruginosa culture supernatant was studied for the two inhibitors 11 and 12 and analyzed by liquid chromatography-mass spectrometry (LC-MS) (Fig. 3B). Disulfides 26 and 27 were synthesized via oxidation with H2O2 in DMSO/H2O and used as reference compounds for the stability assay (Fig. 3A). […] The separation of those two peaks of the benzylated derivative 26 using preparative HPLC gave 26a and 26b (m/z of 901.28, Fig. S1 ^†).
In the presence of the bacterial culture supernatant of P. aeruginosa, the conversion of thiols 11 and 12 into the corresponding disulfides 26 and 27 was monitored at 37 °C and thiol half-lives of 48 min for 11 and 70 min for 12 were determined (Fig. 3B).
Disulfide formation assay
The stability of two thiols 11 and 12 and their ability to form the corresponding disulfides was analyzed by HPLC-MS. […] Samples were drawn over 4.5 hours and analyzed by LC-MS using a RP-18 column 100/2 Nucleoshell RP18plus, 2.7 μm from Macherey-Nagel, Germany (H2O/MeCN + 0.1% formic acid, 15 – 55% MeCN, retention time (t R) 5.8 min (11 or 12), 6.1 min and 6.3 min (disulfide products 26 or 27) on a Thermo Dionex Ultimate 3000 HPLC coupled to a Bruker amaZon SL mass spectrometer, with UV detection at 254 nm). Thiol half-lives were determined by analysis of the obtained graphs and values of 80 min for 11 and 46 min for 12 were obtained […]

The subject of series [4] is Pseudomonas aeruginosa PA14. Put plainly: Antibacterial activity (MIC, ESCMID guidelines). In kind it is cell-based. The following applies: for MIC: Pseudomonas aeruginosa, PA14; for antimicrobial activity (bacterial viability): up to 100 μM. The procedure:
as §4, §1
Antimicrobial activity against P. aeruginosa PA14 was tested using ESCMID guidelines and […]

T2 sequence (P08253 110-660): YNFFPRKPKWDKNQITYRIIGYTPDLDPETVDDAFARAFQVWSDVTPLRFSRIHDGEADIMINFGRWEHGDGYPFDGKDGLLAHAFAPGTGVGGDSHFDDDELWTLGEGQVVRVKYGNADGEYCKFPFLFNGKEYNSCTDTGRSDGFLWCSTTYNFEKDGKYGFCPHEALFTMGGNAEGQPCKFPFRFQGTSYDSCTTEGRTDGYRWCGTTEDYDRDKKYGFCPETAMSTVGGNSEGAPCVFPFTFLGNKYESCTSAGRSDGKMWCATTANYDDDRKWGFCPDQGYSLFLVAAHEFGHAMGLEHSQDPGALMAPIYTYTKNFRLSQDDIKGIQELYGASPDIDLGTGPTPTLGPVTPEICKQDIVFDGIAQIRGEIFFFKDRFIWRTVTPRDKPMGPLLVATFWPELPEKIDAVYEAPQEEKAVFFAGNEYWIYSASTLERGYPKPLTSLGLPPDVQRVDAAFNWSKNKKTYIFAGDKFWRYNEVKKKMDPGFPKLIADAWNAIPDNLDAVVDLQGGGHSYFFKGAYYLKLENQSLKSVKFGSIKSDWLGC
T3 sequence (P03956 100-469): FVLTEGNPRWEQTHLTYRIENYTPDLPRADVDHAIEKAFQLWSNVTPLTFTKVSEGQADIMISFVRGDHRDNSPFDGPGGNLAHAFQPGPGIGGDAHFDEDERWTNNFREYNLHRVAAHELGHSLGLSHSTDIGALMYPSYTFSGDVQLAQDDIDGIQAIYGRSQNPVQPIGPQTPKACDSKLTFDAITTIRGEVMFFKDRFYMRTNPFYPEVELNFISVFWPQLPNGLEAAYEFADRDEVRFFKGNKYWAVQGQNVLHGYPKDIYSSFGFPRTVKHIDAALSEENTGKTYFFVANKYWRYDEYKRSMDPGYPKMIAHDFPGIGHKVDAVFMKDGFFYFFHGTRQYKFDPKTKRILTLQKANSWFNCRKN
T5 sequence (P22894 101-467): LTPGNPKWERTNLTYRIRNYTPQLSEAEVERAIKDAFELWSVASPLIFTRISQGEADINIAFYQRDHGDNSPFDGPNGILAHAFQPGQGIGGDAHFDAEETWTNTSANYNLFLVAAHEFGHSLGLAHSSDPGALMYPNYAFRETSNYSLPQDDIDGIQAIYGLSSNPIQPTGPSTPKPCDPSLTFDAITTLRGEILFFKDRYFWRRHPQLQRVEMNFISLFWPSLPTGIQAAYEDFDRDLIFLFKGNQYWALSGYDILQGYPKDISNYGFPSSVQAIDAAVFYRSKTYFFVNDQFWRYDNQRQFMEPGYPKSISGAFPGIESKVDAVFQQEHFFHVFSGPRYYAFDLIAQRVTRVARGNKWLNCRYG
T6 sequence (P08254 100-477): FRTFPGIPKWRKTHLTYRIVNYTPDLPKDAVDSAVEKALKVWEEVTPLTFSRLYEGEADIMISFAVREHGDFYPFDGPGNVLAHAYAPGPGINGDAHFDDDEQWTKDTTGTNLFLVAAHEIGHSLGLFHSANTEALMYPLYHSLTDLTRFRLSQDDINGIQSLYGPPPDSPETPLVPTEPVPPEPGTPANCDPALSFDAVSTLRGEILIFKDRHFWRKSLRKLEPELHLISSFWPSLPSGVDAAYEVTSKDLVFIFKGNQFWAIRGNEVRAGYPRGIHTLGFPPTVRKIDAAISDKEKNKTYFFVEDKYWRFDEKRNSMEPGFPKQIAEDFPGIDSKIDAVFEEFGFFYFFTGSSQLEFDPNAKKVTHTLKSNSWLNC
T1 sequence (P09237 95-267): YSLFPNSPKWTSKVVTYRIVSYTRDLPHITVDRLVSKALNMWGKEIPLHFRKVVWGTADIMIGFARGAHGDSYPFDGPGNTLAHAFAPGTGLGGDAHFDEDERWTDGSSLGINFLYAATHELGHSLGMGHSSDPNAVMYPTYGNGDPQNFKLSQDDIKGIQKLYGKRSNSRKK

As a reminder, the IC50 is the concentration that gives 50% inhibition. The inhibition is the share of the control response that was lost under treatment. The MIC is the lowest concentration that inhibits growth of the organism. The low end stands for inhibition by little substance, the high end for a need for much substance. For the compound `O=C(Nc1ccc(S[C@@H]2O[C@H](CO)[C@H](O)[C@H](O)[C@H]2O)cc1)C(S)Cc1ccccc1` (stereo partly drawn) [Compound 11], the cytotoxicity entry in the series on A549, with HEK293 and in the series on HepG2 was “no detectable cytotoxicity” throughout. Also, the IC50 in “Cytotoxicity MTT assay [1]”, in “Cytotoxicity MTT assay [2]” (HEK293 cells (kidney)) and in “Cytotoxicity MTT assay [2]” (HepG2 cells (liver)) was greater than 100 µM throughout. Further, the inhibition at 100 µM at MMP-7 is less than 10%; at MMP-2 it was less than 10%; at MMP-1, 10 ± 5%; at MMP-14, less than 10%; at MMP-8, less than 10%; at MMP-3, less than 10%. In addition, the half-life at 1.25 mM in [3] turned out to be 1.33 h. The MIC in series [4] was greater than 100 µM. For the same compound, the “antimicrobial activity (bacterial viability)” value in [4] is “No antimicrobial activity was detected”.
As for `CC(C)CC(S)C(=O)Nc1ccc(S[C@@H]2O[C@H](CO)[C@H](O)[C@H](O)[C@H]2O)cc1` (stereo partly drawn) [Compound 12], the cytotoxicity entry in the series with A549, in the series with HEK293 and in the series on HepG2 was “no detectable cytotoxicity” in each case. The IC50 in “Cytotoxicity MTT assay [1]”, in the series “Cytotoxicity MTT assay [2]” (HEK293 cells (kidney)) and in “Cytotoxicity MTT assay [2]” (HepG2 cells (liver)) was greater than 100 µM each time. Also, the inhibition at 100 µM on MMP-7 was less than 10%; on MMP-2 it was 19 ± 3%; at MMP-1 it was less than 10%; at MMP-14 it was 19 ± 5%; on MMP-8 it was less than 10%; at MMP-3, less than 10%. In addition, in series [3], the half-life at 1.25 mM is 0.767 h. Moreover, the MIC in [4] was greater than 100 µM. For the same compound, in series [4], the “antimicrobial activity (bacterial viability)” value was “No antimicrobial activity was detected”.

Source of the values: publication PMC11339798, “Dual inhibitors of Pseudomonas aeruginosa virulence factors LecA and LasB” (Chemical Science, 2024).
